For test [1], the target named is T1, ABCG2 (Homo sapiens, UniProt Q9UNQ0).
T1 sequence (Q9UNQ0 1-655): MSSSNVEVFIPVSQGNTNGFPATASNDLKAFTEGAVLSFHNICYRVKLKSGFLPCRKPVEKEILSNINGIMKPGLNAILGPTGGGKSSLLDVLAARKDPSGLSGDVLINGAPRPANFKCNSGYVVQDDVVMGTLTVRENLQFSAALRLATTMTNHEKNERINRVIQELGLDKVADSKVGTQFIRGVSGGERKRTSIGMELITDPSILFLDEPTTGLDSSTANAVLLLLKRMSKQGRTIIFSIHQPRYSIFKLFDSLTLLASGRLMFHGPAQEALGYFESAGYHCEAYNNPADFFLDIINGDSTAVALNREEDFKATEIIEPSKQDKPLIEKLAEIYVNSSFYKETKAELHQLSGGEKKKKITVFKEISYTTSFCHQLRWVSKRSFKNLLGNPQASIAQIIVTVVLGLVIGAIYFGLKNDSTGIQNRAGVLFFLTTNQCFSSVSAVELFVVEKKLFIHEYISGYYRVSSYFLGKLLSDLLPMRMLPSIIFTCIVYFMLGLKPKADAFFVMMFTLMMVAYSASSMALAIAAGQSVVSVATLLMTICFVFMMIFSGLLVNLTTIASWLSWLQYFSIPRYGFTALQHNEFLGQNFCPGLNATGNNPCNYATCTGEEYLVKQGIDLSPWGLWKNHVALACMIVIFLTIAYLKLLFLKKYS
The test is described as follows: Pheophorbide A assay (flow cytometry), ABCG2-overexpressing MDCK II BCRP cells. In kind it is cell-based. On the set-up: host or cells: MDCK II. The settings on record: curve top constrained to reference 8, read-out: IC50±SEM ABCG2 Pheophorbide A. (In general: Flow cytometry measures light scatter and fluorescence of single cells or particles in a stream.)

In test [2] the target is T2, ABCC1 (Homo sapiens, UniProt P33527). The test is described as follows: Calcein AM assay (plate reader), ABCC1-overexpressing H69AR cells. The settings on record: for IC50±SEM ABCC1 Calcein AM: H69AR cells, curve top constrained to reference 7; for mode of modulation of ABCC1 (in words): initial screening at 10 µM, calcein AM assay.
Test [3] concerns the target T3, ABCB1 (Homo sapiens, UniProt P08183). The test is described as follows: Calcein AM assay (plate reader), ABCB1-overexpressing A2780/ADR cells.
In test [4] the target is T1, ABCG2. The test is described as follows: Hoechst 33342 assay (plate reader), MDCK II BCRP cells.
Experimental: The fluorescence accumulation at an excitation wavelength of 360 nm and an emission wavelength of 460 nm was measured over a period of 120 min in 60 s intervals using a Paradigm microplate reader [Beckman Coulter (Brea, CA, USA)]. The average steady-state fluorescence value was calculated for each well and correlated to the used compound concentration.
Test [5] concerns the target T2, ABCC1. Nature of the test: Daunorubicin accumulation assay (flow cytometry), H69AR cells.
Test [6] concerns the target T3, ABCB1. The test is described as follows: Daunorubicin accumulation assay (flow cytometry), A2780/ADR cells.

T3 sequence (P08183 whole entry): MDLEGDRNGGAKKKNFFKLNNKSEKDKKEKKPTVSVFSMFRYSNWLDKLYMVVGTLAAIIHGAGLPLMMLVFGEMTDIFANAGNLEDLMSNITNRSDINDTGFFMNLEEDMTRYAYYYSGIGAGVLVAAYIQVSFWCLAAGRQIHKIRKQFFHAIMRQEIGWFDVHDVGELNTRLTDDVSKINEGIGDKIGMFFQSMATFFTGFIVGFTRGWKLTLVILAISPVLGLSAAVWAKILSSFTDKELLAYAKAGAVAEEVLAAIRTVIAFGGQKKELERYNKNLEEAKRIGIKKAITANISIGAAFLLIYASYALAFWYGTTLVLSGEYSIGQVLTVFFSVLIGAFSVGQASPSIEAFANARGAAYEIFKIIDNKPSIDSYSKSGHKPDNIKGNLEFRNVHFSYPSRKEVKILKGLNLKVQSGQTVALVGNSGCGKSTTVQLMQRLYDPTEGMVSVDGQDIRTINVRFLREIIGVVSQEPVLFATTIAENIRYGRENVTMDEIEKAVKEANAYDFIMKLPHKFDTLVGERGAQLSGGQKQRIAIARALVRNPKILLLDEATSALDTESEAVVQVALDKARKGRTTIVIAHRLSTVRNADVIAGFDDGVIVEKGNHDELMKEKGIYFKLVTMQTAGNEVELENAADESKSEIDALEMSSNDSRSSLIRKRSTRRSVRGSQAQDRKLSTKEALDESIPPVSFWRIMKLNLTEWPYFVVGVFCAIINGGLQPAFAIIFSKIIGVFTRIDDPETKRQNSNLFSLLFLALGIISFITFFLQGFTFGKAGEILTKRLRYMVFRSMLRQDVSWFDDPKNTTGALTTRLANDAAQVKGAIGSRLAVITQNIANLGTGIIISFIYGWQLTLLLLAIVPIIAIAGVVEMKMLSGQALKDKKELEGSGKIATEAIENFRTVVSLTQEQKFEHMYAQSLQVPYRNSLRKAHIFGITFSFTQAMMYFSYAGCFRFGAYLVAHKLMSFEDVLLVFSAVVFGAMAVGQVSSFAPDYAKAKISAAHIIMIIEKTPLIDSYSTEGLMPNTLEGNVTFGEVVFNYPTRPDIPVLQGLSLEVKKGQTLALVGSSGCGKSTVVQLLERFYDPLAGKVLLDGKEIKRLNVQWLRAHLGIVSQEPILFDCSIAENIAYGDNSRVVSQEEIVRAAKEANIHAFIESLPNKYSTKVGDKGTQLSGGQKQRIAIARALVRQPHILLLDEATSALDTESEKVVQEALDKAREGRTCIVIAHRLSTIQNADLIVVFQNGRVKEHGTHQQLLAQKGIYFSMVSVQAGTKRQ
T2 sequence (P33527 whole entry): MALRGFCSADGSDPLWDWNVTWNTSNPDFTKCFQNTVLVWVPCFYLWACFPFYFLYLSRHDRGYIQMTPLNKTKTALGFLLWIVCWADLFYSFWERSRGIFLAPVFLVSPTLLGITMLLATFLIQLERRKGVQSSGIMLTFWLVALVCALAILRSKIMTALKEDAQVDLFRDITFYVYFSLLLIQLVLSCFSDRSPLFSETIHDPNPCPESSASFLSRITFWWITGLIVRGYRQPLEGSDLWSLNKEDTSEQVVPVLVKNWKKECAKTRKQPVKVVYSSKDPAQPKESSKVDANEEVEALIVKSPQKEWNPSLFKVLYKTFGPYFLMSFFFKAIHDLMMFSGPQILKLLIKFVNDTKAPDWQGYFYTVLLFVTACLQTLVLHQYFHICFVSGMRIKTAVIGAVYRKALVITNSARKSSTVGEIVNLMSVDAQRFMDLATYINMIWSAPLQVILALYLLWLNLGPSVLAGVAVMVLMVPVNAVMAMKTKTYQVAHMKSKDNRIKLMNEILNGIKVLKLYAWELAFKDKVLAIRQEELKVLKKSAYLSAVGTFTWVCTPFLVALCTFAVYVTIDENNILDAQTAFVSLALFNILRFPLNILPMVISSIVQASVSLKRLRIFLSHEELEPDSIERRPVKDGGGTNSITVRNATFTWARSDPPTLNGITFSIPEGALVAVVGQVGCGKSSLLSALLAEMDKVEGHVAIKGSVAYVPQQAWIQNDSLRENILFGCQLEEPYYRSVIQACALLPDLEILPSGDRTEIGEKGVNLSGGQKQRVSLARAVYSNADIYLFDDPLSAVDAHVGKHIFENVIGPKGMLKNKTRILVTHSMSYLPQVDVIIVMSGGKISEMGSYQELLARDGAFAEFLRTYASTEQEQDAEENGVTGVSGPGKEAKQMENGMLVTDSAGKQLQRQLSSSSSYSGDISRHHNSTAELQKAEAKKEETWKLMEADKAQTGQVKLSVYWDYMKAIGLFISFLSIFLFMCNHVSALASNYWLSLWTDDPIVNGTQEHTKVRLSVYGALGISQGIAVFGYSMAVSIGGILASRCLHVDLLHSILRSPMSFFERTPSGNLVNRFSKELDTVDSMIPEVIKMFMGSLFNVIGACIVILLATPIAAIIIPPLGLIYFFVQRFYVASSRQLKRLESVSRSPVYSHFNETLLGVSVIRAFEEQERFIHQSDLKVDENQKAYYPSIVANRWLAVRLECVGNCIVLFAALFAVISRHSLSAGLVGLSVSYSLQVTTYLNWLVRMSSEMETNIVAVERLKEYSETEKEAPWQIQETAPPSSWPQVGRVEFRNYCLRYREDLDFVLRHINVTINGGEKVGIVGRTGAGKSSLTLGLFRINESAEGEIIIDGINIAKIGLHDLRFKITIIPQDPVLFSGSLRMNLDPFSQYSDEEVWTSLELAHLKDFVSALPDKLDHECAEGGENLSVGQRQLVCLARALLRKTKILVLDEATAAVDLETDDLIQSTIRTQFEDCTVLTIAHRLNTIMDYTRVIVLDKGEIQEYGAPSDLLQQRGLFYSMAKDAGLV

As usually defined, the IC50 is the concentration that gives 50% inhibition. In the case of `O=C(C1c2ccccc2Oc2ccccc21)N1CCN(Cc2nnnn2-c2ccc(F)cc2)CC1` [Compound 4], the IC50 on ABCG2 [1] was 15.1 ± 1.2 µM; on ABCB1 [3], 15.5 ± 1.3 µM. The “IC50±SEM ABCC1 Calcein AM” value at ABCC1 [2] is “n.i”.
`Cc1ccccc1Cn1c(N2CCN(CCc3ccccc3)CC2)nc2c1c(=O)[nH]c(=O)n2C` [Compound 1]: at ABCG2 [1], the IC50 turned out to be 7.89 ± 0.44 µM. Further, on ABCC1 [2], the “IC50±SEM ABCC1 Calcein AM” value is “n.i” and the “mode of modulation of ABCC1 (in words)” value was “apparent slight activation of ABCC1”. Further, the concentration for half-maximal inhibition (IC50) on ABCB1 [3] was 22.7 ± 5.4 µM.
`Cc1onc(-c2ccccc2Cl)c1C(=O)N1CCN(Cc2nnnn2-c2ccc(F)cc2)CC1` [Compound 3]: the IC50 at ABCG2 [1] is 15.9 ± 1.1 µM; against ABCG2 [4], 37.9 ± 12.5 µM; against ABCC1 [5], 38.7 ± 15.2 µM; on ABCC1 [2], 38.6 ± 2.2 µM.
With `Cn1c(=O)n(C)c2cc(S(=O)(=O)N3CCN(C(c4ccccc4)c4ccccc4)CC3)ccc21` [Compound 2], the IC50 on ABCG2 [1] amounted to 25.8 ± 12.1 µM. On ABCC1 [2], the “IC50±SEM ABCC1 Calcein AM” value was “n.i” and the “mode of modulation of ABCC1 (in words)” value is listed as “apparent slight activation of ABCC1”. Also, the IC50 at ABCB1 [3] is 8.26 ± 0.54 µM.
Turning to `COc1ccc(OCc2noc(CN3CCN(C(=O)C45CC6CC(CC(C6)C4)C5)CC3)n2)cc1` [Compound 5], the IC50 on ABCG2 [1] was 12.4 ± 1.3 µM; against ABCG2 [4], 28.5 ± 6.1 µM; at ABCC1 [5], 57 ± 6.5 µM; at ABCC1 [2] it was 60.9 ± 14 µM; against ABCB1 [6], 80.2 ± 30.1 µM; at ABCB1 [3], 25.6 ± 1.1 µM.

Source of the values: paper PMC8826350, “Structural feature-driven pattern analysis for multitarget modulator landscapes” (Bioinformatics, 2021).
